pIC50: −log10 of the molar value. Read-outs that look alike come from different tables or passages of the source.
Legend:
mTOR = target: T1, mTOR (Homo sapiens, UniProt P42345); assay: Biochemical assay for m-TOR by TR-FRET
T1 construct: purchased Invitrogen Corporation (Carlsbad/Calif., USA) PV4753
Method in brief: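 mTOR (0.5 nM) phosphorylates GFP-4EBP1 (400 nM) with 8 μM ATP at rt in 50 mM HEPES pH 7.5, 10 mM MnCl2, 50 mM NaCl, 1 mM EGTA, 1 mM DTT; compounds 0.003–10 μM final. EDTA stop with Tb-anti-p4EBP1[pT46] antibody (0.5 nM); TR-FRET read after 15 min against no-enzyme and vehicle controls.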

[1] = tested on: PKB Ser473 phosphorylation in Rat1-myr-HA-p110 beta cells; assay: Reverse protein array, PKB Ser473 phosphorylation in Rat1-myr-HA-p110 beta cells; format: cell-based; settings: Rattus norvegicus, 0.5 h, 30 minutes compound incubation, read-out: p-PKB/IC50_beta
[2] = Parallel Artificial Membrane Permeability Assay (PAMPA) at pH 6.8; format: physicochemical
Method in brief: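 Reported as log Pe, membrane permeability was determined by parallel artificial membrane assay at pH 6.8 per Wohnsland–Faller.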

T1 sequence (P42345 1360-2549 limits assumed): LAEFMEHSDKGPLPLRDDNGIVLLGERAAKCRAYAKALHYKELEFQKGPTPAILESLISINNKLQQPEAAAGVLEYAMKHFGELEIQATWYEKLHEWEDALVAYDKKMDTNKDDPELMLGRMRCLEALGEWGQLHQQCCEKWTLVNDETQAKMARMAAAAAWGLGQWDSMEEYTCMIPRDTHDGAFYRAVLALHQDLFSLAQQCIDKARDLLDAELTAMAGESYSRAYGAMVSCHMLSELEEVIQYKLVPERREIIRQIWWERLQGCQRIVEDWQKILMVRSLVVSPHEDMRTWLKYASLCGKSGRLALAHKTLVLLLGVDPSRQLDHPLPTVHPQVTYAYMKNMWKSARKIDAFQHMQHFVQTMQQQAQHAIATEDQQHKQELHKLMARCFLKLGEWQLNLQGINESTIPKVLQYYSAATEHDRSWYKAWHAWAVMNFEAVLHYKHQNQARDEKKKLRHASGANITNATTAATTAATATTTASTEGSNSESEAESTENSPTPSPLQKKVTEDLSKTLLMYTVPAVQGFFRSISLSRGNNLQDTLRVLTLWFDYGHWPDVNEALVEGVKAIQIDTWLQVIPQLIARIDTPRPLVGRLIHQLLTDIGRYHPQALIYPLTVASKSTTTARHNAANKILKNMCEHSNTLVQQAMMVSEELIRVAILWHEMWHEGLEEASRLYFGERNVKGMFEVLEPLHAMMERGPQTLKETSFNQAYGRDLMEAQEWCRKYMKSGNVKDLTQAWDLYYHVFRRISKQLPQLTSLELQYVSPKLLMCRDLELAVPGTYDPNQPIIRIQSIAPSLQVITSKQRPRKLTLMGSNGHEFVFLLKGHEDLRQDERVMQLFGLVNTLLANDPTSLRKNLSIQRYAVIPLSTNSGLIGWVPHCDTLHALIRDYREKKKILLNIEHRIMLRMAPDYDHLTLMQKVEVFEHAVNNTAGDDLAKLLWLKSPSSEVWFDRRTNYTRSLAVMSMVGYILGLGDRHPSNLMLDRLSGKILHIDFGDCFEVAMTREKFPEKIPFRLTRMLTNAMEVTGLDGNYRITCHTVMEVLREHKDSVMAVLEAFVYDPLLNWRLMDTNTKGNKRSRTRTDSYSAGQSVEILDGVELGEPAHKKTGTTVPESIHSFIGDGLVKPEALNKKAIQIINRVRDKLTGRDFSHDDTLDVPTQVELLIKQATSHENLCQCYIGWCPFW

| pIC50 (mTOR; read-out: EPK_mTOR/IC50) | pIC50 [1] | HT-Perm logPe pH6.8 [2] | HT-perm/logPe pH6.8 [2] | pIC50 (mTOR; read-out: mTOR/IC50) | Structure (SMILES) |
| --- | --- | --- | --- | --- | --- |
| 6.81 | 6.68 |  |  |  | CCOc1ccc(-c2ccc3ncc4c(c3c2)n(-c2ccc(NC(=O)COC)nc2C)c(=O)n4C)cn1 [Example 20.2, N-{5-[8-(6-Ethoxy-pyridin-3-yl)-3-methyl-2-oxo-2,3-dihydro-imidazo[4,5-c]quinolin-1-yl]-6-methyl-pyridin-2-yl}-2-methoxy-acetamide] |
| 8.05 | 7.95 | −5.2 |  |  | Cc1nc(N(C)C)ccc1-n1c(=O)n(C)c2cnc3ccc(-c4cncc(N)c4)cc3c21 [Example 19.5, 8-(5-Amino-pyridin-3-yl)-1-(6-dimethylamino-2-methyl-pyridin-3-yl)-3-methyl-1,3-dihydro-imidazo[4,5-c]quinolin-2-one] |
| 7.23 | 7.79 |  |  |  | CNc1ncc(-c2ccc3ncc4c(c3c2)n(-c2ccc(NC(=O)COC)nc2C)c(=O)n4C)cn1 [Example 20.3, 2-Methoxy-N-{6-methyl-5-[3-methyl-8-(2-methylamino-pyrimidin-5-yl)-2-oxo-2,3-dihydro-imidazo[4,5-c]quinolin-1-yl]-pyridin-2-yl}-acetamide] |
| 6.85 | 7.11 |  |  |  | COCCOc1ccc(-n2c(=O)n(C)c3cnc4ccc(-c5cnc(COC)c(OC)c5)cc4c32)c(C)n1 [Example 22.3, 1-[6-(2-Methoxy-ethoxy)-2-methyl-pyridin-3-yl]-8-(5-methoxy-6-methoxymethyl-pyridin-3-yl)-3-methyl-1,3-dihydro-imidazo[4,5-c]quinolin-2-one] |
| 7.28 | 7.11 | −3.8 |  |  | CCNc1cc(-c2ccc3ncc4c(c3c2)n(-c2cnc(F)cc2C)c(=O)n4C)cnc1C [Example 16.2, 8-(5-Ethylamino-6-methyl-pyridin-3-yl)-1-(6-fluoro-4-methyl-pyridin-3-yl)-3-methyl-1,3-dihydro-imidazo[4,5-c]quinolin-2-one] |
| 6.21 |  | −3.7 |  |  | Cc1cc(F)ncc1-n1c(=O)n(C)c2cnc3ccc(-c4cnc5c(ccn5C)c4)cc3c21 [Example 16.5, 1-(6-Fluoro-4-methyl-pyridin-3-yl)-3-methyl-8-(1-methyl-1H-pyrrolo[2,3-b]pyridin-5-yl)-1,3-dihydro-imidazo[4,5-c]quinolin-2-one] |
| 7.68 | 7.49 |  |  |  | COCCOc1ccc(-n2c(=O)n(C)c3cnc4ccc(-c5cncc(N6CCC6)c5)cc4c32)c(C)n1 [Example 22.2, 8-(5-Azetidin-1-yl-pyridin-3-yl)-1-[6-(2-methoxy-ethoxy)-2-methyl-pyridin-3-yl]-3-methyl-1,3-dihydro-imidazo[4,5-c]quinolin-2-one] |
| 8.52 |  | −3.9 |  |  | CNc1ncc(-c2ccc3ncc4c(c3c2)n(-c2ccc(N(C)C)nc2C)c(=O)n4C)cn1 [Example 19.1, 1-(6-Dimethylamino-2-methyl-pyridin-3-yl)-3-methyl-8-(2-methylamino-pyrimidin-5-yl)-1,3-dihydro-imidazo[4,5-c]quinolin-2-one] |
| > 8.52 | > 8.34 |  |  |  | CCNc1cc(-c2ccc3ncc4c(c3c2)n(-c2ccc(N3CC(F)(F)C3)nc2C)c(=O)n4C)cnc1CO [Example 24.3, 1-[6-(3,3-Difluoro-azetidin-1-yl)-2-methyl-pyridin-3-yl]-8-(5-ethylamino-6-hydroxymethyl-pyridin-3-yl)-3-methyl-1,3-dihydro-imidazo[4,5-c]quinolin-2-one] |
| 7.96 | 8.02 |  |  |  | CNc1ccc(-c2ccc3ncc4c(c3c2)n(-c2ccc(NC(=O)COC)nc2C)c(=O)n4C)cn1 [Example 20.4, 2-Methoxy-N-{6-methyl-5-[3-methyl-8-(6-methylamino-pyridin-3-yl)-2-oxo-2,3-dihydro-imidazo[4,5-c]quinolin-1-yl]-pyridin-2-yl}-acetamide] |
| 6.67 |  | −3.5 |  |  | COc1ccc(-n2c(=O)n(C)c3cnc4ccc(-c5cnc(N(C)C)nc5)cc4c32)c(Cl)n1 [Example 18.3, 1-(2-Chloro-6-methoxy-pyridin-3-yl)-8-(2-dimethylamino-pyrimidin-5-yl)-3-methyl-1,3-dihydro-imidazo[4,5-c]quinolin-2-one] |
| 7.89 |  | −3.6 |  |  | CCNc1cc(-c2ccc3ncc4c(c3c2)n(-c2ccc(OC)nc2Cl)c(=O)n4C)cnc1C [Example 18.1, 1-(2-Chloro-6-methoxy-pyridin-3-yl)-8-(5-ethylamino-6-methyl-pyridin-3-yl)-3-methyl-1,3-dihydro-imidazo[4,5-c]quinolin-2-one] |
|  | 7.85 | −4.4 |  |  | CCOc1ccc(-c2ccc3ncc4c(c3c2)n(-c2ccc(N(C)C)nc2C)c(=O)n4C)cn1 [Example 19.3, 1-(6-Dimethylamino-2-methyl-pyridin-3-yl)-8-(6-ethoxy-pyridin-3-yl)-3-methyl-1,3-dihydro-imidazo[4,5-c]quinolin-2-one] |
| 6.05 | 6.78 |  |  |  | COCC(=O)Nc1ccc(-n2c(=O)n(C)c3cnc4ccc(-c5cncc(OC(C)C)c5)cc4c32)c(C)n1 [Example 20.5, N-{5-[8-(5-Isopropoxy-pyridin-3-yl)-3-methyl-2-oxo-2,3-dihydro-imidazo[4,5-c]quinolin-1-yl]-6-methyl-pyridin-2-yl}-2-methoxy-acetamide] |
| 6.86 |  | −3.8 |  |  | Cc1nc(C(C)(C)O)ccc1-n1c(=O)n(C)c2cnc3ccc(-c4cncc(OC(C)C)c4)cc3c21 [Example 31.9, 1-[6-(1-Hydroxy-1-methyl-ethyl)-2-methyl-pyridin-3-yl]-8-(5-isopropoxy-pyridin-3-yl)-3-methyl-1,3-dihydro-imidazo[4,5-c]quinolin-2-one] |

Continued, molecule first:

| Structure (SMILES) | pIC50 (mTOR; read-out: EPK_mTOR/IC50) | pIC50 [1] | HT-Perm logPe pH6.8 [2] | HT-perm/logPe pH6.8 [2] | pIC50 (mTOR; read-out: mTOR/IC50) |
| --- | --- | --- | --- | --- | --- |
| CCOc1ccc(-c2ccc3ncc4c(c3c2)n(-c2ccc(C)nc2C)c(=O)n4C)cn1 [Example 14.2, 1-(2,6-Dimethyl-pyridin-3-yl)-8-(6-ethoxy-pyridin-3-yl)-3-methyl-1,3-dihydro-imidazo[4,5-c]quinolin-2-one] | 7.59 | 7.66 | −3.8 |  |  |
| COc1ncccc1-n1c(=O)n(C)c2cnc3ccc(-c4cnc(N(C)C)nc4)cc3c21 [Example 1.9, 8-(2-Dimethylamino-pyrimidin-5-yl)-1-(2-methoxy-pyridin-3-yl)-3-methyl-1,3-dihydro-imidazo[4,5-c]quinolin-2-one] |  | 7.22 |  | −3.3 | 7.85 |
| CNc1ncc(-c2ccc3ncc4c(c3c2)n(-c2ccc(N(C)CCOC)nc2C)c(=O)n4C)cn1 [Example 15.2, 1-{6-[(2-Methoxy-ethyl)-methyl-amino]-2-methyl-pyridin-3-yl}-3-methyl-8-(2-methylamino-pyrimidin-5-yl)-1,3-dihydro-imidazo[4,5-c]quinolin-2-one] | 8.15 | 7.67 | −3.9 |  |  |
| Cc1ccc(-n2c(=O)n(C)c3cnc4ccc(-c5cnc6c(ccn6C)c5)cc4c32)c(C)n1 [Example 14.7, 1-(2,6-Dimethyl-pyridin-3-yl)-3-methyl-8-(1-methyl-1H-pyrrolo[2,3-b]pyridin-5-yl)-1,3-dihydro-imidazo[4,5-c]quinolin-2-one] | 7.89 | 7.68 | −4.3 |  |  |
| CCNc1cc(-c2ccc3ncc4c(c3c2)n(-c2ccc(N(C)CC)nc2C)c(=O)n4C)cnc1C [Example 12.2, 8-(5-Ethylamino-6-methyl-pyridin-3-yl)-1-[6-(ethyl-methyl-amino)-2-methyl-pyridin-3-yl]-3-methyl-1,3-dihydro-imidazo[4,5-c]quinolin-2-one] | 8.15 | > 8.34 | −4 |  |  |
| CNc1ncc(-c2ccc3ncc4c(c3c2)n(-c2cccnc2C)c(=O)n4C)cn1 [Example 2.2, 3-Methyl-8-(2-methylamino-pyrimidin-5-yl)-1-(2-methyl-pyridin-3-yl)-1,3-dihydro-imidazo[4,5-c]quinolin-2-one] |  | 7.83 |  | −4.7 | 8.10 |
| COc1ccc(-c2ccc3ncc4c(c3c2)n(-c2ncccc2C)c(=O)n4C)cn1 [Example 3.13, 8-(6-Methoxy-pyridin-3-yl)-3-methyl-1-(3-methyl-pyridin-2-yl)-1,3-dihydro-imidazo[4,5-c]quinolin-2-one] |  | 6.02 |  | −3.7 |  |
| COc1ccc(-n2c(=O)n(C)c3cnc4ccc(-c5cnc(N)c(C(F)(F)F)c5)cc4c32)c(OC)n1 [Example 8.1, 8-(6-Amino-5-trifluoromethyl-pyridin-3-yl)-1-(2,6-dimethoxy-pyridin-3-yl)-3-methyl-1,3-dihydro-imidazo[4,5-c]quinolin-2-one] |  | 7.89 |  | −4.1 |  |
| COCCN(C)c1ccc(-n2c(=O)n(C)c3cnc4ccc(-c5cnc(CO)c(OC)c5)cc4c32)c(C)n1 [Example 15.9, 8-(6-Hydroxymethyl-5-methoxy-pyridin-3-yl)-1-{6-[(2-methoxy-ethyl)-methyl-amino]-2-methyl-pyridin-3-yl}-3-methyl-1,3-dihydro-imidazo[4,5-c]quinolin-2-one] | 6.92 | 7.39 |  |  |  |
| Cc1nc(F)ccc1-n1c(=O)n(C)c2cnc3ccc(-c4cnc(N)c(CO)c4)cc3c21 [Example 7.17, 8-(6-Amino-5-hydroxymethyl-pyridin-3-yl)-1-(6-fluoro-2-methyl-pyridin-3-yl)-3-methyl-1,3-dihydro-imidazo[4,5-c]quinolin-2-one] | 7.10 | 6.67 |  |  |  |
| COc1ccc(-n2c(=O)n(C)c3cnc4ccc(-c5ccc6nccn6c5)cc4c32)c(OC)n1 [Example 8.10, 1-(2,6-Dimethoxy-pyridin-3-yl)-8-imidazo[1,2-a]pyridin-6-yl-3-methyl-1,3-dihydro-imidazo[4,5-c]quinolin-2-one] | 6.33 |  | −3.9 |  |  |

Source: patent publication US20100311714A1, “1H-IMIDAZO[4,5-c]QUINOLINONE COMPOUNDS” (priority 2009, published 2010)
